Reference: publication PMC12925725, “A potent nonapeptide inhibitor for the CXCL12/HMGB1 heterocomplex: A computational and experimental approach” (Computational and Structural Biotechnology Journal, 2025)
Blank lines part the entries; values can stand above or below the molecule they belong to.

What was measured:
HMGB1-BoxB [1] = target: T1, HMGB1-BoxB (Homo sapiens, UniProt P09429); test: Microscale thermophoresis (MST) binding to HMGB1-BoxB; conditions: 10 nM His-tag RED-tris-NTA labelled protein, PBS-T 0.05 % Tween 20, at least 40 min room temperature, 25 °C
T1 construct: His-tagged HMGB1-BoxB, HMGB1-BoxA, and full length HMGB1 proteins were produced at the Protein Facility; made in house
T1 sequence (P09429 95-163 limits assumed): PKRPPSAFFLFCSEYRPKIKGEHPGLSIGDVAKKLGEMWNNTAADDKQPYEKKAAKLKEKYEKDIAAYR
Method: (§1) His-tagged HMGB1-BoxB, HMGB1-BoxA, and full length HMGB1 proteins were produced at the Protein Facility of the Institute for Research in Biomedicine as previously described, [17], and stored in phosphate-buffered saline (PBS; product No. D8537, Sigma Aldrich, Saint Louis, USA).
(§2) Target proteins were fluorescently-labeled using the specific His-Tag Labeling Kit RED-tris-NTA 2nd Generation of NanoTemper Technologies (Product No. MO-L018), according to manufacturer instructions. A fixed 10 nM concentration of labeled target protein was mixed with sixteen 1:1 serial dilutions of the ligand peptide (see Supplementary Materials, Table S4 for the details about the concentration ranges used for the peptides). Both protein and peptide were dissolved in PBS-T buffer (0.05 % Tween™ 20, NanoTemper Technologies), and incubated for at least 40 min at room temperature. […] Finally, the data were processed by employing the dedicated MO.Affinity Analysis software v2.3 (NanoTemper Technologies GmbH, München, Germany) and the Kd values were determined based on concentration-dependent changes in normalized fluorescence (Fnorm), while the figures were generated using GraphPad Prism software v8.0.2 (GraphPad, Boston, USA). […]

Solubility in PBS buffer = assay type: physicochemical; conditions: compared with HBP08–2
[2] = tested on: murine CXCR4 + 300.19 PreB cell line; test: Peptide toxicity on murine CXCR4+ 300.19 PreB cells (AnnexinV-FITC / propidium iodide, flow cytometry); assay type: cell-based; conditions: 1 μM or 10 μM, 2 or 4 hours
Method: (§3) After incubation, cells were stained using AnnexinV-FITC and propidium iodide following the manufacturer’s instructions, and cell viability was analyzed by ﬂow cytometry in comparison to the untreated control.

[3] = target: T2, CXCL12/HMGB1 heterocomplex (Homo sapiens, UniProt P09429); test: In vitro chemotaxis of human monocytes in response to the CXCL12/HMGB1 heterocomplex (Boyden chamber); assay type: cell-based; conditions: 1 nM CXCL12 + 300 nM HMGB1, peptide 0.1-10 μM, 90 min, four independent experiments, read-out: IC50, inhibition of monocyte migration in response to the CXCL12/HMGB1 heterocomplex
T2 construct: His-tagged HMGB1-BoxB, HMGB1-BoxA, and full length HMGB1 proteins were produced; His-tag; made in house
T2 sequence (P09429 1-215): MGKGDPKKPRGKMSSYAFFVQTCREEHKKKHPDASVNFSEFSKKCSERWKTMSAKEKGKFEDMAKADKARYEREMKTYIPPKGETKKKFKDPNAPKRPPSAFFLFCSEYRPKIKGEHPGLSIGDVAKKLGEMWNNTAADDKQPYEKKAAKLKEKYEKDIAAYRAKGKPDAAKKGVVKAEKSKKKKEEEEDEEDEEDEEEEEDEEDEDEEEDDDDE
Method: The murine 300.19 PreB cell line, stably transfected with the human CXCR4 [47], was cultured under standard culture conditions (5 % CO2, […], 37 °C) in RPMI-1640, supplemented with 10 % Fetal Bovine Serum, 1x non-essential amino acids, 1 mM Sodium pyruvate, 20 mM GlutaMAX, 50 μM β-Mercaptoethanol, 50 U/mL Penicillin and 50 μg/mL Streptomycin (GIBCO). Human monocytes were freshly isolated from buffy-coats obtained by spontaneous donation from healthy individuals (Central Laboratory of Swiss Red Cross, Basel, Switzerland, and Centro Trasfusionale Lugano, Switzerland, Canton Ticino Ethical Committee approval CE3428), and isolated by positive selection using CD14 microbeads (Miltenyi Biotec), as previously described.
In vitro cell migration of CXCR4 + murine 300.19 PreB cells and of freshly isolated human monocytes was performed using Boyden chambers equipped with 5 μm pore membranes, as previously described. Briefly, cells were diluted at 10^6 cell/mL in RPMI 1640, supplemented with 20 mM Hepes, pH 7.4, and 1 % pasteurized plasma protein solution, and allowed to migrate for 90 min in response to different stimuli under standard conditions (5 % CO2, […], 37 °C). CXCL12 was used at 1 nM, 10 nM or 100 nM. The CXCL12/HMGB1 heterocomplex was formed by combining 1 nM CXCL12 with 300 nM HMGB1.

human monocytes = test: Peptide toxicity on human monocytes (AnnexinV-FITC / propidium iodide, flow cytometry); assay type: cell-based; conditions: 1 μM or 10 μM, 2 or 4 hours
Method: as §3

HMGB1-BoxA [4] = target: T3, HMGB1-BoxA (Homo sapiens, UniProt P09429); test: Microscale thermophoresis (MST) binding to HMGB1-BoxA; conditions: 10 nM labelled protein, PBS-T 0.05 % Tween 20, at least 40 min room temperature, 25 °C
T3 construct: His-tagged HMGB1-BoxB, HMGB1-BoxA, and full length HMGB1 proteins were produced at the Protein Facility; made in house
T3 sequence (P09429 9-79 limits assumed): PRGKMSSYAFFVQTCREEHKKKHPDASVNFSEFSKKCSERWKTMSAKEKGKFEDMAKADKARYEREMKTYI
Method: as §1, §2

[5] = target: T4, High Mobility Group Box 1 (HMGB1), full length (UniProt P09429 1-215, RED-tris-NTA dye on the His tag (His-Tag Labeling Kit RED-tris-NTA 2nd Generation) in the MST); test: MST; 10 nM target protein labelled on its His tag (RED-tris-NTA) mixed with sixteen 1:1 serial dilutions of the peptide; PBS-T (0.05 % Tween 20); incubated at least 40 min at room temperature; 25 °C; Monolith NT.115 Pico, excitation 20 %, MST power 40 %; conditions: both partners purified
T4 construct: HMGB1, full length; also called recombinant HMGB1; source: produced at the Protein Facility of the Institute for Research in Biomedicine as previously described
T4 sequence (looked up): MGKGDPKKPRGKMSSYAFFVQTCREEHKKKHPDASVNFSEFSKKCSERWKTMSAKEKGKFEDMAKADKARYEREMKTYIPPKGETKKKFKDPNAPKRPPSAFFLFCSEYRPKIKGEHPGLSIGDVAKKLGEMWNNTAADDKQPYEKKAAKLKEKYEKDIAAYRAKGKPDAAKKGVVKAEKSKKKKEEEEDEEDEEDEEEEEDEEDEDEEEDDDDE

HMGB1-BoxA [6] = target: T5, HMGB1-BoxA (RED-tris-NTA dye on the His tag (His-Tag Labeling Kit RED-tris-NTA 2nd Generation) in the MST); test: as above; conditions: both partners purified
T5 chain: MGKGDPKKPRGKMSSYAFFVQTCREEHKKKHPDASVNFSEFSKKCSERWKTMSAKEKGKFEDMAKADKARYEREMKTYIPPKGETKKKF

HMGB1-BoxB [7] = test: as above

Molecule: CC[C@H](C)[C@H](NC(=O)[C@H](Cc1c[nH]c2ccccc12)NC(=O)[C@H](CCSC)NC(=O)[C@H](CCSC)NC(=O)[C@H](Cc1ccc(O)cc1)NC(=O)[C@H](Cc1c[nH]cn1)NC(=O)[C@H](CCCNC(=N)N)NC(=O)[C@@H]1CCCN1)C(=O)N[C@@H](Cc1c[nH]cn1)C(=O)O [HBP08–3]
- Kd (HMGB1-BoxB [1]): 15.3 ± 1.9 nM
- solubility in PBS buffer (Solubility in PBS buffer): lower solubility

B1: HBP08–2 (peptide)
peptide: PRHYQMWIH
notes: Reconstituted in DMSO; also called G1P + E5Q; source: synthetic peptide, synthetized by Proteogenix (without TFA), purity about 99 %
- Kd [5]: 28.1 ± 7 nM
- Kd (HMGB1-BoxA [6]): 4200 ± 400 nM
- Kd (HMGB1-BoxB [7]): 11.3 nM

The next lines start with results.

- Kd (HMGB1-BoxB [1]): 11.3 ± 2.3 nM
- IC50 [3]: 3310 nM
- Kd (HMGB1-BoxA [4]): 4200 ± 400 nM
Molecule: CC[C@H](C)[C@H](NC(=O)[C@H](Cc1c[nH]c2ccccc12)NC(=O)[C@H](CCSC)NC(=O)[C@H](CCC(N)=O)NC(=O)[C@H](Cc1ccc(O)cc1)NC(=O)[C@H](Cc1c[nH]cn1)NC(=O)[C@H](CCCNC(=N)N)NC(=O)[C@@H]1CCCN1)C(=O)N[C@@H](Cc1c[nH]cn1)C(=O)O [HBP08–2]
- toxicity on murine CXCR4+ 300.19 PreB cells [2]: did not exhibit toxicity
- toxicity on human monocytes (human monocytes): did not exhibit toxicity

- Kd (HMGB1-BoxB [7]): 15.3 nM
Molecule: PRHYMMWIH [HBP08–3]
